Measured values from patent US20230338391A1, “TREATMENT FOR DEPRESSION” (TAKEDA PHARMACEUTICAL COMPANY LIMITED, priority 2020, published 2023).
Read-outs that look alike come from different tables or passages of the source.

Assay: Phase 1 single-rising dose (SRD, Part 1) plasma PK in healthy subjects
Assay type: in vivo, human
Conditions: for Vd/F / AUC(0-inf) / Cmax / Tmax / AUC(0-t): both sexes, human, plasma; for Tmax: po
Method: The study was designed to assess the safety, tolerability, PK, and PD of COMPOUND A. A total of 88 subjects were enrolled in 6 SRD and 5 SRD/MRD cohorts (n=8 per cohort). The study was composed of 2 parts.
In Part 1 of the study (SRD cohorts), a single oral tablet dose of COMPOUND A (0.3, 1, 3, 5, 9, or 18 mg) or matching placebo was administered on Day 1 followed by safety, tolerability, PK, and PD assessments. In each SRD cohort of 8 subjects (6 active: 2 placebo), sentinel dosing was used whereby 2 initial subjects (1 active: 1 placebo) were administered study drug to evaluate safety and tolerability before dosing in the remaining subjects (5 active: 1 placebo) after an interval of at least 24 hours. Dosing in the remaining 6 subjects from each cohort was staggered such that only 3 subjects were dosed in 1 day, with the last 3 subjects being dosed after an additional 24-hour interval. The data from each cohort were reviewed sequentially to ensure adequate safety and tolerability before administering the next dose level. Study drug was administered after an overnight fast of at least 10 hours. Subjects were confined in the study unit for 5 days, from Check-in on Day −1 until approximately 96 hours after dosing. Subjects in Cohorts 1 to 5 (0.3-9 mg) returned to the clinic on Days 6 and 7 and subjects in Cohort 6 (18 mg) returned on Days 6, 7 and 8 for additional PK blood sample collections. To allow for a preliminary assessment of the effect of food on the PK of COMPOUND A, subjects in SRD Cohort 3 (3 mg) returned to the clinic to receive study drug under fed conditions (standard high-fat meal, as defined by the Food and Drug Administration (“FDA”)), after the safety and tolerability of the higher dose (5 mg) under fasted conditions had been established.
For all cohorts in Parts 1 and 2, serial PK blood samples were collected pre- and post-dose on Day 1 to measure plasma concentrations of COMPOUND A and its metabolites. For all SRD/MRD cohorts in Part 2, urine samples were collected pre- and post-dose on Day 1 and post-dose on Day 18 to measure concentrations of COMPOUND A and its metabolites.
For Part 1 of the study, all 36 subjects who received COMPOUND A were included in the PK set. For Part 2 of the study, all 30 subjects who received COMPOUND A were included in the PK set.
Referring now to FIG. 2, mean plasma concentration-time profiles (linear and semilog scales) of COMPOUND A were determined following single oral administration of COMPOUND A.

[1] = single oral 0.3 mg, mean, N = 6

## CC1=CN2CCS(=O)(=O)N=C2C(c2ccc(OC3CCCCC3)cc2)=N1 [COMPOUND A, 9-[4-(Cyclohexyloxy)phenyl]-7-methyl-3,4-dihydropyrazino[2,1-c][1,2,4]thiadiazine 2,2-dioxide]
oral, range across single dose levels, read-out: mean Vz/F
  Vd/F: 95.1 to 133 L
oral, range across the 0.3 to 18 mg single dose range, read-out: mean AUC∞
  AUC(0-inf): 148 to 8880 ng·h/mL
oral, range across the 0.3 to 18 mg single dose range, read-out: mean plasma Cmax
  Cmax: 3.63 to 126 ng/mL
0.3 mg, single oral 0.3 mg, median, N = 6, read-out: tmax
  Tmax: 1.25 h
1 mg, single oral 1 mg, median, N = 6, read-out: tmax
  Tmax: 2.5 h
3 mg, single oral 3 mg, median, N = 6, read-out: tmax
  Tmax: 1.75 h
5 mg, single oral 5 mg, median, N = 6, read-out: tmax
  Tmax: 2.75 h
9 mg, single oral 9 mg, median, N = 6, read-out: tmax
  Tmax: 5.5 h
18 mg, range across single oral doses 0.3, 1, 3, 5, 9, 18 mg, read-out: median tmax
  Tmax: 1.25 to 5.5 h
18 mg, single oral 18 mg, median, N = 6, read-out: tmax
  Tmax: 5.05 h
[1]
  AUC(0-t): 126 ng·h/mL
  CL/F: 2.17 L/h
  t1/2z: 33.1 h
Single oral 0.3 mg, mean, N = 6, read-out: AUC∞
  AUC(0-inf): 148 ng·h/mL
Single oral 0.3 mg, mean, N = 6, read-out: Cmax
  Cmax: 3.63 ng/mL
Single oral 0.3 mg, mean, N = 6, read-out: Vz/F
  Vd/F: 98.8 L
Single oral 1 mg, mean, N = 6
  AUC(0-t): 565 ng·h/mL
  CL/F: 1.79 L/h
  t1/2z: 41.3 h
Single oral 1 mg, mean, N = 6, read-out: AUC∞
  AUC(0-inf): 642 ng·h/mL
Single oral 1 mg, mean, N = 6, read-out: Cmax
  Cmax: 10.3 ng/mL
Single oral 1 mg, mean, N = 6, read-out: Vz/F
  Vd/F: 95.1 L
Single oral 3 mg, mean, N = 6
  AUC(0-t): 1340 ng·h/mL
  CL/F: 2.18 L/h
  t1/2z: 37.9 h
Single oral 3 mg, mean, N = 6, read-out: AUC∞
  AUC(0-inf): 1460 ng·h/mL
Single oral 3 mg, mean, N = 6, read-out: Cmax
  Cmax: 27.1 ng/mL
Single oral 3 mg, mean, N = 6, read-out: Vz/F
  Vd/F: 114 L
Single oral 5 mg, mean, N = 6
  AUC(0-t): 2320 ng·h/mL
  CL/F: 2.08 L/h
  t1/2z: 42.5 h
Single oral 5 mg, mean, N = 6, read-out: AUC∞
  AUC(0-inf): 2650 ng·h/mL
Single oral 5 mg, mean, N = 6, read-out: Cmax
  Cmax: 45.3 ng/mL
Single oral 5 mg, mean, N = 6, read-out: Vz/F
  Vd/F: 115 L
Single oral 9 mg, mean, N = 6
  AUC(0-t): 4490 ng·h/mL
  CL/F: 1.98 L/h
  t1/2z: 47.8 h
Single oral 9 mg, mean, N = 6, read-out: AUC∞
  AUC(0-inf): 5380 ng·h/mL
Single oral 9 mg, mean, N = 6, read-out: Cmax
  Cmax: 69.5 ng/mL
Single oral 9 mg, mean, N = 6, read-out: Vz/F
  Vd/F: 120 L
Single oral 18 mg, mean, N = 6
  AUC(0-t): 8080 ng·h/mL
  CL/F: 2.29 L/h
  t1/2z: 44.1 h
Single oral 18 mg, mean, N = 6, read-out: AUC∞
  AUC(0-inf): 8880 ng·h/mL
Single oral 18 mg, mean, N = 6, read-out: Cmax
  Cmax: 126 ng/mL
Single oral 18 mg, mean, N = 6, read-out: Vz/F
  Vd/F: 133 L
